# Test results taken from patent publication US11660265B2, “Method of rapidly achieving therapeutic concentrations of triptans for treatment of migraines and cluster headaches” (ZP Opco, Inc., priority 2018, dated 2023).
# Like-named read-outs stand apart in the source and are kept apart here.
# What was measured:
# [1] = test system: migraine; settings: cited from earlier work; for Pain freedom at 2 hours / Pain relief at 2 hours: lowest oral dose
# [2] = clinical
# Method: The final treatment administered was 3.8 mg on a 10 cm^2 patch using an applicator with 0.52 Joule of application energy in the intracutaneous microneedle system described herein. The products tested were:
# This was a single-center, open-label, randomized five-way crossover study (Part 1) followed by a sequential study of two additional treatments (Parts 2 and 3). After obtaining informed consent and establishing eligibility, each subject received each of the seven study treatments once, followed by in-clinic monitoring and extensive blood sample collection for pharmacokinetic analysis. […] Plasma samples from the initial dosing days were sent to the analytical laboratory for analysis, and tolerability for each of the dose levels was summarized. […] During Part 3, subjects received a single 3.8 mg patch (applied with a 0.52 J applicator) and also completed identical procedures to the previous dosing days. After completion of the seven dosing days, subjects were assessed one final time and dismissed from the study.
# Twenty subjects were enrolled in the study, 10 males and 10 females. The subjects mean age was 29 years±3.5 years with a mean BMI of 24.4±3.5.
# PK parameters were summarized by treatment group using descriptive statistics (arithmetic means, standard deviations, coefficients of variation, sample size, minimum, maximum, and median).
# [3] = cited from earlier work; for Bioavailability: oral tablet
# [4] = in vivo; parameters: species or system swine; settings: Yorkshire, pig, iv
# Method: The M207 patch was tested in swine. Intravenously administered zolmitriptan was used as a control. The inner thigh of the swine was used as the site of administration.
# The low limit of quantitation (LLOQ) and high-limit of quantitation (HLOQ) were 0.1 and 1000 ng/mL, respectively. A four minute method utilizing high performance liquid chromatography-electrospray ionization-tandem mass spectrometry (HPLC-ESI-MS/MS) was developed for quantitation of zolmitriptan and its two major metabolites in HGP plasma. The instrumentation consist of Agilent® 1200 pumps, CTC PAL® Autosampler with cooling stack, AB Sciex® TurboV® ESI source, and API 4000® mass spectrometer.
# All plasma samples and standards were first protein precipitated using 100% methanol and then diluted with 30% solution of acetonitrile at 1:2 ratio (Plasma: 30% ACN), 20 μL of this solution was injected into autosample. The autosample was equipped with a 100 μL syringe and a 100 μL loop. […]
# The HPLC method used was a reversed phase gradient method (0.0 min, 10% B; 0.5 min, 10% B; 1.0 min, 40% B; 1.7 min, 40% B; 2.1 min, 10% B; 4.0 min, 10% B). […] During the mass spectrometer acquisition, eleven MRM transitions were monitored. […] The peak areas under each corresponding MRM transitions were summed and compared to that of spiked standard plasma samples to calculated concentration for each sample. […]
# [5] = Solubility of zolmitriptan in various acids; assay type: physicochemical; settings: 5 °C, thermodynamic from solid, 2-8° C.
# Source text: The suspension was then centrifuged.
# [6] = molecular target: T1, recombinant human 5-HT1D receptors (Homo sapiens, UniProt P28221); assay: Ligand-receptor binding kinetics, 3H-5-carboxamidotryptamine competition, CHO-K1 membranes
# T1 construct: expressed in transfected cells; host or cells: CHO-K1
# Method: (§1) Membrane preparations were derived from transfected CHO-K1 cells expressing recombinant human 5-HT1B and 5-HT1D receptors. […] After incubating for various lengths of time, membranes were washed by filtration and residual ^3H counts were determined on a microplate scintillation counter. On-rate constant (kon), off-rate constant (koff), and equilibrium dissociation constant (KD) were determined using nonlinear regression on Prism 4 (GraphPad), and Xlfit (IDBM) software. The following formulae were used in calculating additional parameters using previously derived^2 pharmacokinetic data in healthy human volunteers. Residence time for each ligand on 5-HT1B and 5-HT1D receptors=1/koff.
# [7] = molecular target: T2, recombinant human 5-HT1B receptors (Homo sapiens, UniProt P28222); assay: as above
# T2 construct: expressed in transfected cells; host or cells: CHO-K1
# Method: as §1
# [8] = test system: 5HT1B/1D; settings: cited from earlier work
# [9] = both, human, in vivo, AUC0-2 hr (SD)
# [10] = both, human, in vivo, AUC0-last (SD)
# [11] = both, human, in vivo, AUC2 hrs, Mean
# [12] = both, human, in vivo, AUCinf, Mean
# [13] = both, human, in vivo, Cmax (SD)
# [14] = both, human, in vivo, Cmax, Mean
# [15] = both, human, in vivo, Tmax Med (Range)
# [16] = both, human, in vivo, t1/2, Mean
# [17] = plasma N-desmethyl zolmitriptan metabolite
# [18] = plasma N-desmethyl zolmitriptan metabolite, in ng·h/mL
# T2 sequence (P28222 whole entry): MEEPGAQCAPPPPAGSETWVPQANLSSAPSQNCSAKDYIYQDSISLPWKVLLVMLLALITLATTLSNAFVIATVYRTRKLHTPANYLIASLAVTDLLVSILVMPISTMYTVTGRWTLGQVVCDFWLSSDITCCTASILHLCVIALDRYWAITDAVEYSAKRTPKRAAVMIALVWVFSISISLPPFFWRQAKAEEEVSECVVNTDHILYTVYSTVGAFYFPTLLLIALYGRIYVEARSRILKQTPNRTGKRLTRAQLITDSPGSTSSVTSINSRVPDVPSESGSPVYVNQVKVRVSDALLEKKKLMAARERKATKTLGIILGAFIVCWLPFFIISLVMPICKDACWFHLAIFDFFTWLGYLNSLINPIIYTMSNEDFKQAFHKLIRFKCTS
# T1 sequence (P28221 whole entry): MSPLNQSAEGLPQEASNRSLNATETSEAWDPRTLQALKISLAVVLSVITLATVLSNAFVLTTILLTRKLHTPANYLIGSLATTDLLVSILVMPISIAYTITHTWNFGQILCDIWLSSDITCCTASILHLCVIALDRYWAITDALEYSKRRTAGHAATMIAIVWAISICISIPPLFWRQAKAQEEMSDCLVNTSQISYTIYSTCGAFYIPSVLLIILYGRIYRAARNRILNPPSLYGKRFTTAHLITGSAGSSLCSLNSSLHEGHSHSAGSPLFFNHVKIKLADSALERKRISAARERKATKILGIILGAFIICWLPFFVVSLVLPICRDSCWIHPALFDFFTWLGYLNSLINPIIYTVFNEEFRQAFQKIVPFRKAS
compound,measurement,setting,value
CNS(=O)(=O)CCc1ccc2[nH]cc(C3CCN(C)CC3)c2c1 [naratriptan],Pain freedom at 2 hours,[1],18%
same,Pain relief at 2 hours,[1],49%
"CN(C)CCc1c[nH]c2ccc(C[C@H]3COC(=O)N3)cc12 [Zolmitriptan 2.5 mg Oral Tablet, zolmitriptan]",AUC0-last / Dose,"[2]; both, human, in vivo",8.6 ng·h/mL/mg
same,Time to peak plasma concentration of the N-desmethyl metabolite,"[2]; both, human, in vivo",2.7 h
same,Tmax of N-desmethyl metabolite,"[2]; both, human, in vivo",2.71 h
same,"Tmax, Mean","[2]; both, human, in vivo",1.79 h
same,AUC(0-t),[2]; [9],4.7 ng·h/mL
same,AUC(0-t),"[2]; both, human, in vivo, AUC0-last",22.2 ng·h/mL
same,AUC(0-t),[2]; [10],22.2 ng·h/mL
same,AUC(0-t),[2]; [11],4.72 ng·h/mL
same,AUC(0-t),"[2]; both, human, in vivo, AUC2 hrs, Median",4.92 ng·h/mL
same,AUC(0-inf),[2]; [12],27.2 ng·h/mL
same,AUC(0-inf),"[2]; both, human, in vivo, AUCinf, Median",27.1 ng·h/mL
same,AUC(0-t),"[2]; both, human, in vivo, AUCt, Mean",22.2 ng·h/mL
same,AUC(0-t),"[2]; both, human, in vivo, AUCt, Median",22.6 ng·h/mL
same,Cmax,"[2]; both, human, in vivo, Cmax",3.8 ng/mL
same,Cmax,[2]; [13],3.8 ng/mL
same,Cmax,[2]; [14],3.77 ± 1.51 ng/mL
same,Cmax,"[2]; both, human, in vivo, Cmax, Median",3.7 ng/mL
same,Tmax,"[2]; both, human, in vivo, Tmax",1.8 ± 1.27 h
same,Tmax,"[2]; both, human, in vivo, Tmax (range), median",1 h
same,Tmax,[2]; [15],1 h
same,Tmax,"[2]; both, human, in vivo, Tmax, Mean",1.79 h
same,Tmax,"[2]; both, human, in vivo, Tmax, Median",1 h
same,half-life,[2]; [16],3.27 ± 0.8 h
same,half-life,"[2]; both, human, in vivo, t1/2, Median",3.28 h
same,Reduction of Cmax and AUC by administration with food,[3]; conventional release tablets,13-16%
same,Bioavailability,[3],41 and 48%
"CN(C)CCc1c[nH]c2ccc(C[C@H]3COC(=O)N3)cc12 [Zolmitriptan, zolmitriptan]",Tmax,[4],1 min
same,Pain freedom at 2 hours,[1],29%
same,Pain relief at 2 hours,[1],62%
same,AUC(0-t),"[2]; both, human, in vivo, 2.5 mg, AUC2 hrs Mean (SD)",4.72 ng·h/mL
same,AUC(0-inf),"[2]; both, human, in vivo, 2.5 mg, AUCinf Mean (SD)",27.2 ng·h/mL
same,Cmax,"[2]; both, human, in vivo, 2.5 mg, Cmax Mean (SD)",3.77 ng/mL
same,half-life,"[2]; both, human, in vivo, 2.5 mg, t1/2 Mean (SD)",3.27 h
same,Tmax,"[2]; both, human, in vivo, 2.5 mg, tmax Median (Range)",1 h
same,half-life,"[2]; both, human, in vivo, t1/2 Mean (SD)",1.53 h
same,Tmax,"[2]; both, human, in vivo, tmax Median (Range)",0.3 h
same,solubility,"[5]; aqueous buffer, 0.1 M citric acid",88.6 mg/mL
same,solubility,"[5]; aqueous buffer, 0.1 M maleic acid",50.5 mg/mL
same,solubility,"[5]; aqueous buffer, 0.1 M succinic acid",59.1 mg/mL
same,solubility,"[5]; aqueous buffer, 0.1 M tartaric acid",63.3 mg/mL
same,solubility,"[5]; simulated gastric fluid, 0.1 M HCl",33.3 mg/mL
same,Tmax,[3]; nasal administration,about 1.5 hours
same,Kd,[6],0.34 nM
same,koff,[6]; read-out: koff (converted),0.001 s⁻¹
same,kon,[6]; read-out: kon (converted),2.9e+06 M⁻¹ s⁻¹
same,Kd,[7],1.47 nM
same,koff,[7]; read-out: koff (converted),0.00127 s⁻¹
same,kon,[7]; read-out: kon (converted),883000 M⁻¹ s⁻¹
"CN(C)CCc1c[nH]c2ccc(C[C@H]3COC(=O)N3)cc12 [nasal treatment of zolmitriptan, zolmitriptan]",Patients pain free at 1 hour,[1]; nasal treatment,about 10%
"CNS(=O)(=O)Cc1ccc2[nH]cc(CCN(C)C)c2c1 [Sumatriptan, sumatriptan]",24-hour recurrence rate,"[1]; among those who achieved headache resolution, 6 mg, different trial",38%
same,AUC(0-t),[2]; [9],70.9 ng·h/mL
same,AUC(0-t),[2]; [10],101 ng·h/mL
same,AUC(0-t),[2]; [11],70.9 ng·h/mL
same,AUC(0-inf),[2]; [12],105 ng·h/mL
same,Cmax,[2]; [13],88.8 ng/mL
same,Cmax,[2]; [14],88.8 ng/mL
same,Tmax,[2]; [15],0.167 h
same,half-life,"[2]; both, human, in vivo, sc, t1/2 Mean (SD)",1.14 h
same,Tmax,"[2]; both, human, in vivo, sc, tmax Median (Range)",0.167 h
same,half-life,[2]; [16],1.14 h
same,Tmax,[3]; conventional oral tablet,about 2 hours
same,Bioavailability,[3],about 15%
zolmitriptan [Zolmitriptan 2.5 mg Oral Tablet],"AUC2 hrs, Mean",[2]; [17],2.31 ng·h/mL
same,"AUC2 hrs, Median",[2]; [17],2.24 ng·h/mL
same,"Cmax, Mean",[2]; [17],2.08 ng/mL
same,"Cmax, Median",[2]; [17],2.04 ng/mL
same,"AUCinf, Mean",[2]; [18],14.55
same,"AUCinf, Median",[2]; [18],14.31
same,"AUCt, Mean",[2]; [18],13.71
same,"AUCt, Median",[2]; [18],13.76
"CN(C)CCc1c[nH]c2ccc(C[C@H]3COC(=O)N3)cc12 [orally disintegrating tablets, zolmitriptan]",Tmax,[3]; orally disintegrating tablets,about 3 hours
CNCCc1c[nH]c2ccc(C[C@H]3COC(=O)N3)cc12 [N-desmethyl zolmitriptan],5HT1B/1D potency relative to the parent,[8],2 to 6 times
same,Kd,[6],0.43 nM
same,koff,[6],0.0009 s⁻¹
same,kon,[6],2.1e+06 M⁻¹ s⁻¹
same,Kd,[7],0.92 nM
same,koff,[7],0.000833 s⁻¹
same,kon,[7],900000 M⁻¹ s⁻¹
